{
  "source": "patent US8211933B2",
  "about": "“3.3.0 bicyclic GlyT1 inhibitors and methods of making and using same” (Vanderbilt University, priority 2008, dated 2012)",
  "data": [
    {"molecular_target": "T1, GlyT1 (Homo sapiens, UniProt P48067)", "T1 construct": "Human placental choriocarcinoma cells endogenously expressing GlyT1 can be cultured using standard conditions; host or cells: JAR human placental choriocarcinoma cells", "T1 sequence (P48067 1-706)": "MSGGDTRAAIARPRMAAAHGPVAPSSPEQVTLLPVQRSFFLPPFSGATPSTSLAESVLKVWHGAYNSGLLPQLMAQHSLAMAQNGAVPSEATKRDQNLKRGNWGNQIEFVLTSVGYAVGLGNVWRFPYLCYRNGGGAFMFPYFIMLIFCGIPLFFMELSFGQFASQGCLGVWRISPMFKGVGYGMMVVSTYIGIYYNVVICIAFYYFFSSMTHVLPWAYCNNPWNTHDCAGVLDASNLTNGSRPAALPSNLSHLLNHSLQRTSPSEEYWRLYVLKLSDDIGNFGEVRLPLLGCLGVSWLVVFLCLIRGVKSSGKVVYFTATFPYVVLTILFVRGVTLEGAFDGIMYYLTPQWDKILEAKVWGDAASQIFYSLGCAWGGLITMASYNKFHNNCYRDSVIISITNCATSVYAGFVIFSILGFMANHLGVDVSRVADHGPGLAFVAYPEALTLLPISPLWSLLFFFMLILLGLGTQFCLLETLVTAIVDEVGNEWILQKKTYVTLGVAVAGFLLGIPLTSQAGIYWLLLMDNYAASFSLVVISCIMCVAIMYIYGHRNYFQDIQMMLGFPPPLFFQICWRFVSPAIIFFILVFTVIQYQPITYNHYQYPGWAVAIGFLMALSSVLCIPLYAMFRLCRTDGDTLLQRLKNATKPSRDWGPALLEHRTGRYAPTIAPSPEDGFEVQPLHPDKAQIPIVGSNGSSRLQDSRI", "assay": "[14C]-glycine uptake in JAR cells endogenously expressing GlyT1 (Cytostar T scintillation proximity)", "format": "cell-based", "settings": "inhibition of [14C]-glycine uptake (10 μM), JAR cells, 3 h; read-out: Potency (IC50)", "description": "(§1) Human placental choriocarcinoma cells endogenously expressing GlyT1 can be cultured using standard conditions. Cells can then be grown at 37° C. in a humidified atmosphere 40-48 hours before the assay. Culture medium can be removed from the culture plate, and cells can be incubated with an amount of TBlA buffer with or without the compounds of the present invention for a sufficient period of time. Then an amount of [^14C]-glycine diluted with TBlA can be added to each well. After incubation the microplates can be sealed and counted. Non-specific uptake of [^14C]-glycine can be determined in the presence of unlabeled glycine. To determine potencies, a range of concentrations of the compounds of the present invention can be added to the cells, followed by the fixed concentration of [^14C]-glycine. The concentration of the present compound that inhibited half of the specific uptake of [^14C]glycine (IC50 value) can be determined from the assay data by non-linear curve fitting.\n(§2) The procedure used was analogous to that disclosed in Williams, J. B.; Mallorga P. J.; Lemaire W.; Williams D. L.; Na S.; Patel S.; Conn J. P.; Pettibone D. J.; Austin C.; Sur C.; “Development of a scintillation proximity assay for analysis of Na+/Cl−-dependent neurotransmitter transporter activity,” ANAL. BIOCHEM.\n(§3) Cells were plated at a density of 1.3×10^4 cells/well and grown at 37° C. in a humidified atmosphere of 5% CO2 for 40-48 h. Culture medium was removed from the Cytostar T plate and JAR cells were incubated with 30 μl A of TBlA buffer (120 mM NaC1, 2 mM KCl, 1 mM CaCl2, 1 mM MgCl2, 10 mM Hepes, 5 mM L-alanine, pH 7.5 adjusted with 1 M Tris base) with or without multiple concentrations of test compound (added at 2× final concentration) for 1 min. Then 30 μl of [^14C]-glycine (Perkin-Elmer) diluted in TBlA was added to each well to give a final concentration of 10 μM. Cytostar T plates were then incubated in the dark at room temperature for 3 h, sealed with opaque white bottom plate seals (Perkin-Elmer) and clear top plate seals (Topseal A, Perkin-Elmer), and were counted on a Top Count (Packard). Glycine uptake was determined by measuring radioactivity in each well and plotted as a function of concentration of test compound. […] Nonspecific uptake of [^14C]-glycine was determined in the presence of 10 mM cold glycine. [^14C]-taurine (American Radiolabeled Chemicals, Inc.) uptake experiments were performed according to the same protocol except that 10 mM cold taurine was used to determine nonspecific uptake. […] COS-7 cells were transiently transfected with the human GlyT2 cDNA (Origene Technologies Inc., SC303452) using Fugene 6 (Roche) according to the manufacturer's instructions in Dulbecco's modified Eagle's medium (DMEM, Invitrogen) containing 10% Fetal Bovine Serum, 10 mM HEPES, 1 mM sodium pyruvate, penicillin (100 μg/ml), and streptomycin (100 μg/ml). The following day, the cells were plated at a density of 5×10^5 cells/well in Cytostar T plates and maintained at 37° C. in a humidified atmosphere of 5% CO2 for 24 h. GlyT2 glycine uptake experiments were performed according to the same protocol previously described.", "units": {"IC50": "nM"}, "values": [
      {"smiles": "Cn1cnc(S(=O)(=O)N2CC3CCC(NC(=O)c4ccc(F)c(F)c4)C3C2)c1", "note": "(centres unmarked) [Compound 7j, 3,4-difluoro-N-(2-(1-methyl-1H-imidazol-4-ylsulfonyl)octahydrocyclopenta[c]pyrrol-4-yl)benzamide]", "IC50": 903}
    ]},
    {"molecular_target": "T1, GlyT1", "assay": "[14C]-glycine uptake in JAR cells endogenously expressing GlyT1 (Cytostar T scintillation proximity)", "format": "cell-based", "settings": "read-out: Potency (IC50)", "description": "as §1, §2, §3", "units": {"IC50": "nM"}, "values": [
      {"smiles": "Cn1cnc(S(=O)(=O)N2CC3CCC(NC(=O)c4ccc(F)cc4)C3C2)c1", "note": "(centres unmarked) [Compound 7h, 4-fluoro-N-(2-(1-methyl-1H-imidazol-4-ylsulfonyl)octahydrocyclopenta[c]pyrrol-4-yl)benzamide]", "IC50": 2200},
      {"smiles": "Cn1cnc(S(=O)(=O)N2CC3CCC(NC(=O)c4c(F)cccc4F)C3C2)c1", "note": "(centres unmarked) [Compound 7i, 2,6-difluoro-N-(2-(1-methy1-1H-imidazol-4-ylsulfonyl)octahydrocyclopenta[c]pyrrol-4-yl)benzamide]", "IC50": 630},
      {"smiles": "Cn1cnc(S(=O)(=O)N2CC3CCC(NC(=O)c4ccc(Cl)cc4)C3C2)c1", "note": "(centres unmarked) [Compound 7c, 4-chloro-N-(2-(1-methyl-1H-imidazol-4-ylsulfonyl)octahydrocyclopenta[c]pyrrol-4-yl)benzamide]", "IC50": 1030},
      {"smiles": "Cn1cnc(S(=O)(=O)N2CC3CCC(NC(=O)c4ccc(F)cc4F)C3C2)c1", "note": "(centres unmarked) [Compound 7e, 2,4-difluoro-N-(2-(1-methy1-1H-imidazol-4-ylsulfonyl)octahydrocyclopenta[c]pyrrol-4-yl)benzamide]", "IC50": 925},
      {"smiles": "Cn1cnc(S(=O)(=O)N2CC3CCC(NC(=O)c4ccccc4Cl)C3C2)c1", "note": "(centres unmarked) [Compound 7b, 2-chloro-N-(2-(1-methyl-1H-imidazol-4-ylsulfonyl)octahydrocyclopenta[c]pyrrol-4-yl)benzamide]", "IC50": 101},
      {"smiles": "Cn1cnc(S(=O)(=O)N2CC3CCC(NC(=O)c4ccccc4F)C3C2)c1", "note": "(centres unmarked) [Compound 7f, 2-fluoro-N-(2-(1-methyl-1H-imidazol-4-ylsulfonyl)octahydrocyclopenta[c]pyrrol-4-yl)benzamide]", "IC50": 1800},
      {"smiles": "Cn1cnc(S(=O)(=O)N2CC3CCC(NC(=O)c4ccccc4C(F)(F)F)C3C2)c1", "note": "(centres unmarked) [Compound 7d, N-(2-(1-methyl-1H-imidazol-4-ylsulfonyl)octahydrocyclopenta[c]pyrrol-4-y1)-2-(trifluoromethyl)benzamide]", "IC50": 78},
      {"smiles": "Cn1cnc(S(=O)(=O)N2CC3CCC(NC(=O)c4ccc(Cl)c(Cl)c4)C3C2)c1", "note": "(centres unmarked) [Compound 7g, 3,4-dichloro-N-(2-(1-methyl-1H-imidazol-4-ylsulfonyl)octahydrocyclopenta[c]pyrrol-4-yl)benzamide]", "IC50": 891},
      {"smiles": "CCCS(=O)(=O)N1CC2CCC(NC(=O)c3ccc(Cl)cc3Cl)C2C1", "note": "(centres unmarked) [Compound 71, 2,4-dichloro-N-(2-(propylsulfonyl)octahydrocyclopenta[c]pyrrol-4-yl)benzamide]", "IC50": 7000}
    ]},
    {"molecular_target": "T1, GlyT1", "assay": "[14C]-glycine uptake in JAR cells endogenously expressing GlyT1 (Cytostar T scintillation proximity)", "format": "cell-based", "settings": "result in words; inhibition of [14C]-glycine uptake (10 μM), JAR cells, 3 h", "description": "as §1, §2, §3", "values": [
      {"smiles": "Cn1cnc(S(=O)(=O)N2CC3CCC(NC(=O)c4ccc(Cl)cc4Cl)C3C2)c1", "note": "(centres unmarked) [Compound 5b, 2,4-dichloro-N-(2-(1-methyl-1H-imidazol-4-ylsulfonyl)octahydrocyclopenta[c]pyrrol-4-yl)benzamide]", "Potency (IC50)": "Inactive"}
    ]}
  ]
}
